Read-outs that look alike come from different tables or passages of the source.
System: human cardiac fibroblasts
Experiment: Cell-based inhibition assay of generation of procollagen I C-terminal propeptide (PICP), PICP ELISA
Settings: Cardiac fibroblast, read-out: pIC50, PICP cellular inhibition assay (converted)
Method: Cell-Based Inhibition Assay of Generation of Procollagen I C-Terminal Propeptide (PICP) and Mature Collagen:
An adaptation of the collagen deposition assay described by Chen, C. Z. C., et al., British Journal of Pharmacology, 2009, 158, 1196-1209 was used to examine effect of compounds on procollagen I processing and collagen deposition. In the adapted assay, human cardiac fibroblasts were utilized. Processing of procollagen I was determined by a PICP ELISA assay and deposition of mature collagen was determined by immunostaining.
Human cardiac fibroblasts were cultured and maintained until passage 6 in FGM-3 media (Lonza, #CC-3132) in a 37° C. humidified incubator with 5% CO2. They were then seeded in 96-well black wall, clear bottom plates at 10,000 to 15,000 cells per well in eagle's minimum essential media (EMEM, ATCC #30-2003) containing 10% fetal bovine serum (FBS, Life Technologies #10082147), 1% Glutamax (Life Technologies #35050061) and 1% Penicillin and Streptomycin (Life Technologies #15070063). These cultures were placed in 37° C. incubator. The next day, media were removed by aspiration and cells were rinsed with phosphate buffered saline. Crowding media (also called ficoll media) was prepared by adding 112.5 mg/ml of ficoll70 and 75 mg/ml ficoll400 (GE healthcare #17-0310-10 and 17-0300-10, respectively), 100 μM ascorbic acid, 1% Glutamax and 1% Penicillin and Streptomycin to EMEM media. Test compounds (dissolved in DMSO) were diluted into crowding media and then added to the cells. Final concentration of DMSO in crowding media was less than 0.3%. Cells were treated for 24 to 48 hr in a 37° C. incubator. At the end of the treatment period, cell media were collected. The level of PICP in the media were determined by a PICP ELISA assay (Quidel #8003) following the manufacturer's protocol. Potencies of test compounds were calculated by fitting PICP levels, relative to untreated controls, to log (inhibitor) vs. response equation using Graphpad Prism software 5.0 and expressed as pIC50.

[1] = human cardiac fibroblasts, crowding media, 24 to 48 hr, PICP ELISA of media

Row | Structure (SMILES) | IC50 [1] [µM] | IC50 (Homo sapiens) [µM]
1 | CCCCC[C@H](CN(O)C=O)C(=O)NCNC(=O)c1ccc(-c2cccc(S(N)(=O)=O)c2)o1 [Example 12, (R)-N-((2-((N-hydroxyformamido)methyl)heptanamido)methyl)-5-(3-sulfamoylphenyl)furan-2-carboxamide] | < 3.98 | 
2 | CCCCC[C@H](CN(O)C=O)C(=O)NCNC(=O)c1ccc(-c2ccc3cnn(C)c3c2)o1 [Example 106, (R)—N-((2-((N-hydroxyformamido)methyl)heptanamido)methyl)-5-(1-methyl-1H-indazol-6-yl)furan-2-carboxamide] | < 3.98 | 
3 | CCCCC[C@H](CN(O)C=O)C(=O)NCNC(=O)c1ccc(-c2ccc(O)c(C(=O)O)c2)o1 [Example 62, (R)-2-hydroxy-5-(5-(((2-((N-hydroxyformamido)methyl)heptanamido)methyl)carbamoyl)furan-2-yl)benzoic acid] | < 3.98 | 
4 | CCCCC[C@@H](C(=O)NCNC(=O)c1ccc(-c2cc(O)cc(OCC)c2)o1)[C@@H](CC)N(O)C=O [Example 73, 5-(3-ethoxy-5-hydroxyphenyl)-N-(((R)-2-((R)-1-(N-hydroxyformamido)propyl)heptanamido)methyl)furan-2-carboxamide] | < 3.98 | 
5 | CCCCC[C@@H](C(=O)NCNC(=O)c1ccc(-c2ccc(C(=O)O)c(CC(=O)O)c2)o1)[C@@H](CC)N(O)C=O [Example 114] | < 3.98 | 
6 | CCCCC[C@@H](C(=O)NCNC(=O)c1ccc(-c2cc(OCC)cc(C(=O)NCCN)c2)o1)[C@@H](CC)N(O)C=O [Example 40, 5-(3-((2-aminoethyl)carbamoyl)-5-ethoxyphenyl)-N-(((R)-2-((R)-1-(N-hydroxyformamido)propyl)heptanamido)methyl) furan-2-carboxamide] | < 3.98 | 
7 | CCCCC[C@@H](C(=O)NCNC(=O)c1ccc(-c2cc(OCC)cc(P(=O)(O)OC)c2)o1)[C@@H](CC)N(O)C=O [Example 101, methyl hydrogen (3-ethoxy-5-(5-((((R)-2-((R)-1-(N-hydroxyformamido)propyl)heptanamido)methyl)carbamoyl)furan-2-yl)phenyl)phosphonate] |  | < 3.98
8 | CCCCC[C@@H](C(=O)NCNC(=O)c1ccc(-c2cc(OCC)cc(C(=O)N[C@@H](CCC(=O)OC)C(=O)OC)c2)o1)[C@@H](CC)N(O)C=O [Example 48, (S)-dimethyl 2-(3-ethoxy-5-(5-((((R)-2-((R)-1-(N-hydroxyformamido)propyl)heptanamido)methyl)carbamoyl)furan-2-yl)benzamido) pentanedioate] | < 3.98 | 
9 | CCCCC[C@H](CN(O)C=O)C(=O)NCNC(=O)c1ccc(-c2ccc(F)c(C(=O)O)c2)o1 [Example 91, (R)-2-fluoro-5-(5-(((2-((N-hydroxy-formamido)methyl)heptanamido)methyl)carbamoyl)furan-2-yl)benzoic acid] | < 3.98 | 
10 | CCCCC[C@@H](C(=O)NCNC(=O)c1ccc(-c2ccc(C(=O)N[C@@H](CC(=O)O)C(=O)O)c(C)c2)o1)[C@@H](CC)N(O)C=O [Example 120, (S)-2-(4-(5-((((R)-2-((R)-1-(N-hydroxyformamido)propyl)heptanamido)methyl)carbamoyl)furan-2-yl)-2-methylbenzamido) succinic acid] | < 3.98 | 
11 | CCOc1cc(-c2ccc(C(=O)NCNC(=O)[C@H](CCc3ccc4ccccc4c3)[C@@H](CC)N(O)C=O)o2)ccc1C(=O)N[C@@H](CC(=O)O)C(=O)O [Example 117, (S)-2-(2-ethoxy-4-(5-((((2R,3R)-3-(N-hydroxyformamido)-2-(2-(naphthalen-2-yl)ethyl)pentana-mido)methyl)carbamoyl)furan-2-yl)benzamido) succinic acid] | < 3.98 | 
12 | CCCCC[C@@H](C(=O)NCNC(=O)c1ccc(-c2cc(OCC)cc(C(=O)NC(CO)(CO)CO)c2)o1)[C@@H](CC)N(O)C=O [Example 88, 5-(3-((1,3-dihydroxy-2-(hydroxymethyl)propan-2-yl)carbamoyl)-5-ethoxyphenyl)-N—(((R)-2-((R)-1-(N-hydroxyformamido)propyl)heptanamido)methyl)furan-2-carboxamide] | < 3.98 | 
13 | CCOc1cc(-c2ccc(C(=O)NCNC(=O)[C@H](CCc3ccc4ccccc4c3)[C@@H](CC)N(O)C=O)o2)cc(P(=O)(O)O)c1 [Example 141] | < 3.98 | 
14 | CCCCC[C@@H](C(=O)NCNC(=O)c1ccc(-c2cc(OCC)cc(C(=O)NCC(=O)O)c2)o1)[C@@H](CC)N(O)C=O [Example 85, 2-(3-ethoxy-5-(5-((((R)-2-((R)-1-(N-hydroxy-formamido)propyl)heptanamido)methyl)carbamoyl)furan-2-yl)benzamido) acetic acid] | < 3.98 | 
15 | CCOc1cc(C(=O)O)c(O)c(-c2ccc(C(=O)NCNC(=O)[C@H](CCc3ccccc3)[C@@H](CC)N(O)C=O)o2)c1 [Example 115, 5-ethoxy-2-hydroxy-3-(5-((((2R,3R)-3-(N-hydroxyformamido)-2-phenethylpentanamido)methyl)carbamoyl)furan-2-yl)benzoic acid] | < 3.98 | 
16 | CCCCC[C@H](CN(O)C=O)C(=O)NCNC(=O)c1ccc(-c2cccc(OCC)c2)o1 [Example 14, (R)-5-(3-ethoxyphenyl)-N-((2-((N-hydroxyformamido)methyl)heptanamido)methyl) furan-2-carboxamide] | < 3.98 | 
17 | CCCCC[C@H](CN(O)C=O)C(=O)NCNC(=O)c1ccc(-c2cccc(OC(F)F)c2)o1 [Example 35, (R)-5-(3-(difluoromethoxy)phenyl)-N-((2-((N hydroxyformamido)methyl)heptanamido)methyl) furan-2-carboxamide] | < 3.98 | 
18 | CC[C@H]([C@@H](CCc1ccc(F)cc1F)C(=O)NCNC(=O)c1ccc(-c2cc(OCC(=O)O)cc(C(=O)O)c2O)o1)N(O)C=O [Example 118, 5-(carboxymethoxy)-3-(5-((((2R,3R)-2-(2,4-difluorophenethyl)-3-(N-hydroxyformamido)pentanamido)methyl)carbamoyl)furan-2-yl)-2-hydroxybenzoic acid] | < 3.98 | 
19 | CCCCC[C@H](CN(O)C=O)C(=O)NCNC(=O)c1ccc(-c2ccc(F)c(C(=O)OC)c2)o1 [Example 51, (R)-methyl 2-fluoro-5-(5-(((2-((N-hydroxyformamido)methyl)heptanamido)methyl)carbamoyl)furan-2-yl)benzoate] | < 3.98 | 
20 | CCCCC[C@H](CN(O)C=O)C(=O)NCNC(=O)c1ccc(-c2cc(OCC)cc(C(=O)O)c2)o1 [Example 30, (R)-3-ethoxy-5-(5-(((2-((N-hydroxyformamido)methyl)heptanamido)methyl)carbamoyl)furan-2-yl)benzoic acid] | < 3.98 | 
21 | CCCCC[C@@H](C(=O)NCNC(=O)c1ccc(-c2ccc(C(=O)NCP(=O)(O)O)c(O)c2)o1)[C@@H](CC)N(O)C=O [Example 142, ((2-hydroxy-4-(5-((((R)-2-((R)-1-(N-hydroxyformamido)propyl)heptanamido)methyl)carbamoyl)furan-2-yl)benzamido)methyl)phosphonic acid] | < 3.98 | 
22 | CCCCC[C@@H](C(=O)NCNC(=O)c1ccc(-c2cc(OCC(=O)O)cc(C(=O)N[C@@H](CC(=O)O)C(=O)O)c2)o1)[C@@H](CC)N(O)C=O [Example 125, (S)-2-(3-(carboxymethoxy)-5-(5-((((R)-2-((R)-1-(N-hydroxyformamido)propyl)heptanamido)methyl)carbamoyl)furan-2-yl)benzamido) succinic acid] | < 3.98 | 
23 | CCCCC[C@@H](C(=O)NCNC(=O)c1ccc(-c2cc(OCC)cc(C(=O)N[C@@H](CCC(=O)O)C(=O)OC(C)(C)C)c2)o1)[C@@H](CC)N(O)C=O [Example 45, (S)-5-(tert-butoxy)-4-(3-ethoxy-5-(5-((((R)-2-((R)-1-(N-hydroxyformamido)propyl)heptanamido)methyl)carbamoyl)furan-2-yl)benzamido)-5-oxopentanoic acid] | < 3.98 | 
24 | CCCCC[C@H](CN(O)C=O)C(=O)NCNC(=O)c1ccc(-c2cccc(OCC(F)F)c2)o1 [Example 102, (R)-5-(3-(2,2-difluoroethoxy)phenyl)-N-((2-((N-hydroxyformamido)methyl)heptanamido)methyl)furan-2-carboxamide] | < 3.98 | 
25 | CCCCC[C@H](CN(O)C=O)C(=O)NCNC(=O)c1ccc(-c2cc(OCC)cc(C(=O)NCCN)c2)o1 [Example 34, (R)-5-(3-((2-aminoethyl)carbamoyl)-5-ethoxyphenyl)-N-((2-((N-hydroxyformamido)methyl)heptanamido)methyl) furan-2-carboxamide] | < 3.98 | 
26 | CCCCC[C@@H](C(=O)NCNC(=O)c1ccc(-c2cc(OCC)cc(P(=O)(OC)OC)c2)o1)[C@@H](CC)N(O)C=O [Example 50, dimethyl (3-ethoxy-5-(5-((((R)-2-((R)-1-(N-hydroxyformamido)propyl)heptanamido)methyl)carbamoyl)furan-2-yl)phenyl)phosphonate] |  | < 3.98

From US10450288B2, “Hydroxy formamide derivatives and their use” (GLAXOSMITHKLINE INTELLECTUAL PROPERTY (NO.2) LIMITED, priority 2014, dated 2019)
